{"source": "paper PMC7395068", "about": "“The evolution of strategies to minimise the risk of human drug-induced liver injury (DILI) in drug discovery and development” (Archives of Toxicology, 2020)", "key": {"hLiMTs": {"tested_on": "hLiMTs", "assay": "Combined HCI (HCS) and cellular ATP 3D assay in hLiMTs", "method": "3D spheroid models consisting of either primary human hepatocytes with non-parenchymal cells (hLiMT’s) or HepaRG cells (HepaRG spheroids) were assessed for size (MS), oxidative stress (OS), MMP, mitochondrial mass (MM), GSH and cellular ATP content following drug exposure. Fluorescent images are acquired using the confocal mode of an ArrayScan™ XTI HCI reader (ThermoScientific) following which cellular ATP was measured using 3D CellTiter-Glo (Promega)."}, "[1]": {"details": "cited from earlier work"}, "[2]": {"details": "plasma free fraction; cited from earlier work"}, "[3]": {"assay": "Plasma free fraction (fu) and unbound Cmax (Cmax,u)", "format": "in vitro ADME, human", "details": "unbound plasma Cmax", "method": "The prediction of DILI severity was evaluated further using the 3D combined HCI assays using plasma-free fraction. The majority of fu values were obtained from literature, when unavailable in-house prediction was utilised. Unbound plasma Cmax concentrations (Cmax,u) were derived by multiplying total plasma Cmax with the corresponding free fraction (fu) for each compound."}, "HepG2 cells [4]": {"tested_on": "HepG2 cells", "details": "cited from earlier work"}, "[5]": {"tested_on": "THLE-Null and THLE-3A4 cells", "details": "In vitro Assay; ref Gustafsson 2014; cited from earlier work"}, "[6]": {"tested_on": "HepG2 cells, primary human hepatocytes", "details": "In vitro Assay; ref Garside 2014; cited from earlier work"}, "HepG2 cells [7]": {"tested_on": "HepG2 cells", "details": "cited from earlier work", "remark": "listed apart in the source"}, "[8]": {"details": "cited from earlier work", "remark": "listed apart in the source"}, "rBsep": {"tested_on": "rBsep", "details": "In vitro Assay; ref Dawson 2012; cited from earlier work"}, "HepaRG spheroids": {"tested_on": "HepaRG spheroids", "assay": "Combined HCI (HCS) and cellular ATP 3D assay in HepaRG spheroids"}, "[9]": {"details": "read-out: Human plasma Cmax; total plasma Cmax.tot, median of 9 literature references; cited from earlier work"}, "Upcyte human hepatocytes": {"tested_on": "Upcyte human hepatocytes", "details": "In vitro Assay; ref Tolosa 2019; cited from earlier work"}, "[10]": {"tested_on": "THLE or HepG2 cells, isolated mitochondria, BSEP", "details": "cited from earlier work"}, "[11]": {"details": "Microtissue model structural based (HCI), combined HCS and ATP, MEC < 25 × Cmax.tot cut-off"}, "[12]": {"details": "Modeled in vitro assays (cytotoxicity, mitochondrial dysfunction, BSEP), ref Aleo et al. 2019"}}, "note": "Where two headings read alike, the source gives them in different places."}
{"smiles": "C[N+](C)(C)CC(=O)O", "note": "[betaine, reference compound]", "values": [{"measurement": "DILI prediction hLiMTs (HCS-MEC)", "setting": "hLiMTs; [11]", "value": "-VE"}, {"measurement": "hLiMTs <25x Avg Cmax ATP", "setting": "hLiMTs; hLiMTs, ATP endpoint, cut-off <25x Avg Cmax", "value": "-ve"}, {"measurement": "hLiMTs <100x Avg Cmaxu ATP", "setting": "hLiMTs; hLiMTs, ATP endpoint, cut-off <100x Avg Cmaxu", "value": "-ve"}, {"measurement": "hLiMTs <25x Avg Cmax HCS", "setting": "hLiMTs; hLiMTs, HCS endpoints, cut-off <25x Avg Cmax", "value": "-ve"}, {"measurement": "hLiMTs <100x Avg Cmaxu HCS", "setting": "hLiMTs; hLiMTs, HCS endpoints, cut-off <100x Avg Cmaxu", "value": "-ve"}, {"measurement": "hLiMTs <25x Avg Cmax All", "setting": "hLiMTs; hLiMTs, all endpoints (ATP and HCS), cut-off <25x Avg Cmax", "value": "-ve"}, {"measurement": "hLiMTs Cmax max All", "setting": "hLiMTs; hLiMTs, all endpoints, Cmax max used", "value": "-ve"}, {"measurement": "hLiMTs Cmax min All", "setting": "hLiMTs; hLiMTs, all endpoints, Cmax min used", "value": "-ve"}, {"measurement": "hLiMTs <10 uM All", "setting": "hLiMTs; hLiMTs, all endpoints, cut-off <10 uM", "value": "-ve"}, {"measurement": "hLiMTs <100x Avg Cmaxu All", "setting": "hLiMTs; hLiMTs, all endpoints, cut-off <100x Avg Cmaxu", "value": "-ve"}, {"measurement": "DILI severity category (Chen et al. [2016])", "setting": "[1]; LTKB DILIrank category, ref Chen et al. 2016", "value": "No"}, {"measurement": "DILI severity category (Chen 2016)", "setting": "[1]; human DILI classification, LTKB DILIrank, ref Chen et al. 2016", "value": "No"}, {"measurement": "DILI severity category", "setting": "[1]; human DILI severity, ref Chen et al.", "value": "No"}, {"measurement": "DILI +VE (5-8), DILI -VE (-4)", "setting": "[1]; ref Chen 2016", "value": "-VE"}, {"measurement": "DILI severity category", "setting": "[1]; ref Chen 2016", "value": "vNo-DILI-Concern"}, {"measurement": "fu", "setting": "[2]", "value": 0.760}, {"measurement": "Human plasma Cmax,u", "setting": "[3]", "value": 717.446, "unit": "µM"}, {"measurement": "Structural based (HCI)", "setting": "HepG2 cells [4]; In vitro Assay, ref Tolosa 2012", "value": "-VE"}, {"measurement": "DILI in vitro assay prediction, Tolosa (2012)", "setting": "HepG2 cells [4]; Structural based (HCI), HepG2, ref Tolosa et al. 2012", "value": "-VE"}, {"measurement": "THLE-Null", "setting": "[5]", "value": "-VE"}, {"measurement": "THLE-Null/3A4", "setting": "[5]", "value": "-VE"}, {"measurement": "Cluster 1-6 +VE Assay", "setting": "[6]", "value": "-VE"}, {"measurement": "Structural based (HCI)", "setting": "HepG2 cells [7]; In vitro Assay, ref O'Brien 2006", "value": "+VE"}, {"measurement": "DILI in vitro assay prediction, O'Brien (2006)", "setting": "HepG2 cells [7]; Structural based (HCI), HepG2, ref O'Brien et al. 2006", "value": "+VE (lowest HCI endpoint IC50 (or in the absence of dose–response < 100 µM) < 30 × total human plasma exposure levels (Cmax.tot))"}, {"measurement": "Assigned DILI category", "setting": "[8]; Chen et al. 2016 or literature alignment, ref Chen et al. 2016", "value": 1}, {"measurement": "In vivo DILI", "setting": "[8]; ref Aleo 2019", "value": "-VE"}, {"measurement": "In vivo DILI", "setting": "[8]; ref Dawson 2012", "value": "-VE"}, {"measurement": "In vivo DILI", "setting": "[8]; ref Garside 2014", "value": "-VE"}, {"measurement": "In vivo DILI", "setting": "[8]; ref Gustafsson 2014", "value": "-VE"}, {"measurement": "In vivo DILI", "setting": "[8]; ref O'Brien 2006", "value": "-VE"}, {"measurement": "In vivo DILI", "setting": "[8]; ref Tolosa 2012", "value": "-VE"}, {"measurement": "In vivo DILI", "setting": "[8]; ref Tolosa 2019", "value": "-VE"}, {"measurement": "Inhibition of rBsep cutoff<1& cmax u>.2", "setting": "rBsep", "value": "-VE"}, {"measurement": "Inhibition of rBsep cutoff<3", "setting": "rBsep", "value": "-VE"}, {"measurement": "HepaRG <25x Avg Cmax ATP", "setting": "HepaRG spheroids; HepaRG, ATP endpoint, cut-off <25x Avg Cmax", "value": "-ve"}, {"measurement": "HepaRG <100x Avg Cmaxu ATP", "setting": "HepaRG spheroids; HepaRG, ATP endpoint, cut-off <100x Avg Cmaxu", "value": "-ve"}, {"measurement": "HepaRG <25x Avg Cmax HCS", "setting": "HepaRG spheroids; HepaRG, HCS endpoints, cut-off <25x Avg Cmax", "value": "-ve"}, {"measurement": "HepaRG <100x Avg Cmaxu HCS", "setting": "HepaRG spheroids; HepaRG, HCS endpoints, cut-off <100x Avg Cmaxu", "value": "-ve"}, {"measurement": "HepaRG <25x Avg Cmax All", "setting": "HepaRG spheroids; HepaRG, all endpoints (ATP and HCS), cut-off <25x Avg Cmax", "value": "-ve"}, {"measurement": "HepaRG Cmax max All", "setting": "HepaRG spheroids; HepaRG, all endpoints, Cmax max used", "value": "-ve"}, {"measurement": "HepaRG Cmax min All", "setting": "HepaRG spheroids; HepaRG, all endpoints, Cmax min used", "value": "-ve"}, {"measurement": "HepaRG <10 uM All", "setting": "HepaRG spheroids; HepaRG, all endpoints, cut-off <10 uM", "value": "-ve"}, {"measurement": "HepaRG <100x Avg Cmaxu All", "setting": "HepaRG spheroids; HepaRG, all endpoints, cut-off <100x Avg Cmaxu", "value": "-ve"}, {"measurement": "DILI prediction HepaRG spheroids (HCS-MEC)", "setting": "HepaRG spheroids; [11]", "value": "-VE"}, {"measurement": "Cmax", "setting": "[9]", "value": 944, "unit": "µM"}, {"measurement": "Upcytes multi donor assay 14day data", "setting": "Upcyte human hepatocytes", "value": "-VE"}, {"measurement": "Partition Hybrid HRM Score", "setting": "[10]; In vitro Assay, ref Aleo 2019", "value": "-VE"}, {"measurement": "Ro2 Hybrid HRM Score", "setting": "[10]; In vitro Assay, ref Aleo 2019", "value": "-VE"}, {"measurement": "Partition Hybrid HRM Score ≥4, Aleo (2019)", "setting": "[10]; [12]", "value": "-VE"}, {"measurement": "Partition Hybrid HRM Score ≥8, Aleo (2019)", "setting": "[10]; [12]", "value": "-VE"}, {"measurement": "Rule of Two hybrid HRM Score ≥3, Aleo (2019)", "setting": "[10]; [12]", "value": "-VE"}, {"measurement": "Rule of Two hybrid HRM Score ≥8, Aleo (2019)", "setting": "[10]; [12]", "value": "-VE"}]}
